Reference: article PMC6416395, “B1.12: a novel peptide interacting with the extracellular loop of the EBV oncoprotein LMP1” (Scientific Reports, 2019)
*: point of attachment. FITC = O=C1OC2(c3ccc(O)cc3Oc3cc(O)ccc32)c2ccc(NC(=S)*)cc21

B2: B1 peptide (first extracellular loop of LMP1) (peptide)
peptide: CMSDWTGG
notes: first extracellular loop of latent membrane protein 1 (LMP1), Epstein-Barr virus; Made on Rink amide resin, so the C-terminus may be an amide (surmised); also called target B1; B1 loop of LMP1; source: synthetic peptide (solid-phase Fmoc chemistry, RP-HPLC purified)
B3: B1.12 peptide (peptide)
peptide: ACPLDLRSPCG
notes: peptide selected by phage display from the Ph.D.-C7C library against the B1 loop peptide of LMP1; Made on Rink amide MBHA resin, so the C-terminus may be an amide (surmised); also called selected peptide B1.12; source: synthetic peptide (solid-phase Fmoc chemistry, RP-HPLC purified)

Assays:
[1] = tested on: LMP1 positive cells (C666.1, HeLa/LMP1); experiment: Cellular uptake by flow cytometry, LMP1 positive cells; format: cell-based; details: FITC-labeled peptide 100 μM, 24 hours, C666.1 and HeLa/LMP1
Protocol: (§1) The cellular uptake of the FITC labeled B1.12 peptide/unrelated peptide was analyzed by flow cytometry. C666.1, HeLa/LMP1, and HeLa/Gpt cells, were seeded at a density of 4 × 10^5 cells/mL at 37 °C for 24 hours, and then incubated with 100 μM of both FITC-labeled peptides for 24 hours. Cells were washed three times, trypsinized, centrifuged at 1700 rpm for 5 minutes and then resuspended in 0.35 mL of PBS. The fluorescence associated to the cells was measured using LSR Fortessa X-20 (Becton Dickinson) for HeLa/LMP1 or Attune NxT Flow Cytometer (Thermofisher) cytometer for C666.1 and HeLa/Gpt cells.

[2] = tested on: LMP1 negative cells (HeLa/Gpt); experiment: Cellular uptake by flow cytometry, LMP1 negative cells; format: cell-based; details: FITC-labeled peptide 100 μM, 24 hours
Protocol: as §1

C666.1 cells = experiment: Fluorescence microscopy, C666.1; format: cell-based; details: 10 µM FITC-labeled peptide, (1 hour elsewhere in the source), fixed C666.1 cells
Protocol: To further investigate the fixation of the peptide on C666.1 cells, fluorescence microscopy was performed. […] After being washed with PBS, the fixation of LMP1 was detected by Alexa-fluor 405 labeled secondary antibody (1/100). HeLa/Gpt cells were also stained as described above to serve as negative control. Images were analyzed using an EVOS Floid Cell Imaging Station (Life Technologies).

HeLa/Gpt cells = experiment: Fluorescence microscopy, HeLa/Gpt; format: cell-based; details: 10 µM FITC-labeled peptide, HeLa/Gpt negative control
Protocol: To further investigate the fixation of the peptide on C666.1 cells, fluorescence microscopy was performed. Approximately 1 × 10^6 cells were washed 3 times with PBS, fixed with 4% parafolmaldehyde for 15 minutes, blocked by 5 mg/mL BSA for 1 hour, and incubated with 10 μM FITC labeled B1.12 peptide or anti-LMP1 antibody (1/500 Dako) for 1 hour at room temperature. After being washed with PBS, the fixation of LMP1 was detected by Alexa-fluor 405 labeled secondary antibody (1/100). HeLa/Gpt cells were also stained as described above to serve as negative control. Images were analyzed using an EVOS Floid Cell Imaging Station (Life Technologies).

[3] = target: B2; experiment: ELISA; B1 peptide (100 µg) coated on the plate; about 1 × 10^10 pfu of phage clone added, 1 hour at room temperature; ten washes with 0.5% TBST; anti-M13 antibody and HRP anti-mouse, ABTS; details: both partners purified
B1.12 peptide = target: B3; experiment: ITC; 30 °C, NaHCO3 buffer 0.1 M pH 5.7; B1 peptide (0.2 mM) in the syringe injected (2 µL per injection) into B1.12 peptide (0.01 mM) in the cell; details: both partners purified
[4] = target: Latent membrane protein 1 (LMP1) on HeLa/LMP1 cells (Epstein-Barr virus) (UniProt P03230); experiment: ELISA; competitive inhibition on HeLa/LMP1 cells fixed with 4% paraformaldehyde (10^4 cells/well); synthetic peptide 50-200 µM at 37 °C for 1 hour, then B1.12 phage; anti-M13 antibody detection
[5] = target: B2; experiment: ELISA; competitive inhibition: B1 peptide coated (100 µl of 1 mg/mL in NaHCO3); B1.12 peptide incubated 1 hour at room temperature, then B1.12 phage (2 × 10^10 pfu) 1 hour; bound phage detected by anti-M13 antibody; details: both partners purified

Latent membrane protein 1 (LMP1) on HeLa/LMP1 cells (Epstein-Barr virus), sequence (P03230 whole entry): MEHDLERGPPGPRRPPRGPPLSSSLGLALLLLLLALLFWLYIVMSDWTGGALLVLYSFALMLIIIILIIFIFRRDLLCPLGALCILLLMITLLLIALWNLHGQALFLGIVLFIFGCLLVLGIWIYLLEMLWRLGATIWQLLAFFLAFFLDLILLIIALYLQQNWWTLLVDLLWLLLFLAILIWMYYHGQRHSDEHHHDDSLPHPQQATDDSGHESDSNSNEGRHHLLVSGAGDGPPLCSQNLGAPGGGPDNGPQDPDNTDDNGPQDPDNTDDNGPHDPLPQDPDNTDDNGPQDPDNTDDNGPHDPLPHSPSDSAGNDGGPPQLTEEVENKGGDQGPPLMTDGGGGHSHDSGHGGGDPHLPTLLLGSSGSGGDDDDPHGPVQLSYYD

In the case of “FITC-labeled B1.12 peptide: N-terminus FITC labeled B1.12 ({FITC}-ACPLDLRSPCG-NH2; cysteine pairing not given here)”, the cellular uptake [1] is reported as “significantly higher uptake”, the cellular binding/uptake [2] is reported as “no binding” and the “colocalization with LMP1” value (C666.1 cells) is reported as “co-localized with LMP1”. The “binding to cells (microscopy)” value (HeLa/Gpt cells) was “no binding was observed”.

B1: B1.12 phage clone (other)
chain: ACPLDLRSPCGGGS
notes: whole phage particles were used and detected with an anti-M13 antibody; also called phage B1.12; positive phage B1.12; source: M13 phage clone from the Ph.D.-C7C library (New England Biolabs), amplified in E. coli ER2738 and titrated; not shown: M13 coat protein pIII (on the phage particle), C-terminal, kept
B1: binds [3].

B2: binds (B1.12 peptide).

With B3 the inhibition ratio of phage B1.12 binding at 100 µM peptide [4] was 45% and the “inhibition ratio of phage B1.12 binding at 400 µM peptide” value [5] was about 43%.
